The values that follow come from US10765114B2, “4-amino-6-(pyridyl and 2-substitutedphenyl)-picolinates and 6-amino-2-(pyridyl and 2-substitutedphenyl)-pyrimidine-4-carboxylates and their use as herbicides” (Dow AgroSciences LLC, priority 2013, dated 2020).

Holding throughout (assay type): in vivo
The subject of assay [1] is IPOSS (IPOHE: ivyleaf morningglory (Ipomoea hederecea)). As to the kind of experiment: Post-Emergent Test I. The conditions noted are these: postemergence. How it is done: Post-Emergent Test I Seeds test species were obtained from commercial suppliers and planted into a 13 centimeter (cm) diameter-round pot containing soil-less media mix (Metro-Mix 360®, Sun Gro Horticulture). Postemergence treatments were planted 8-12 days prior to application and cultured in a greenhouse equipped with supplemental light sources to provide a 16 hour (h) photoperiod at 24-29° C. All pots were surface irrigated.
A weighted amount, determined by the highest rate to be tested, of each compound was dissolved in 1.3 mL acetone-dimethyl sulfoxide (DMSO; 97:3, volume per volume (v/v)) and diluted with 4.1 mL water-isopropanol-crop oil concentrate (78:20:2, v/v/v) containing 0.02% Triton X-155 to obtain concentrated stock solutions. Additional application rates were obtained by serial dilution of the high rate solution into a solution containing appropriate volume of 97:3 v/v mixture of acetone and DMSO and appropriate volume of an aqueous mixture of water, isopropyl alcohol, crop oil concentrate (78:20:2, v/v/v) containing 0.02% Triton X-155.
Formulated compounds were applied using a DeVilbiss® compressed air sprayer at 2-4 pounds per square inch (psi). Following treatment, pots were returned to the greenhouse for the duration of the experiment. All pots were sub-irrigated as need to provide optimum growing conditions. All pots were fertilized one time per week by subirrigating with Peters Peat-Lite Special® fertilizer (20-10-20).
All evaluations were made visually on a scale of 0 to 100 where 0 represents no activity and 100 represents complete plant death and presented as indicated in Table A. Visual assessments of plant injury were made based on growth reduction, discoloration, leaf deformity and necrosis

Assay [2] relates to HELAN: sunflower (Helianthus annuus). Description: Pre-Emergent Test I. The conditions noted are these: preemergence. How it is done:
(§1) Pre-Emergent Test I Seeds of test species were planted into round plastic pots (5-inch diameter) containing sandy loam soil. After planting, all pots were sub-irrigated 16 h prior to compound application. Compounds were dissolved in a 97:3 v/v mixture of acetone and DMSO and diluted to the appropriate concentration in a final application solution containing water, acetone, isopropanol, DMSO and Agri-dex (crop oil concentrate) in a 59:23:15:1.0:1.5 v/v ratio and 0.02% w/v (weight/volume) of Triton X-155 to obtain the spray solution containing the highest application rate. Additional application rates were obtained by serial dilution of the high rate solution with the above application solution Formulated compound (2.7 mL) was pipetted evenly over the soil surface followed by incorporation with water (15 mL). Following treatment, pots were returned to the greenhouse for the duration of the experiment. The greenhouse was programmed for an approximate 15 h photoperiod which was maintained at about 23-29° C. during the day and 22-28° C. during the night. Nutrients and water were added on a regular basis through surface irrigation and supplemental lighting was provided with overhead metal halide 1000-Watt lamps as necessary. Herbicidal effect ratings were obtained 14 days after treatment. All evaluations were made relative to appropriate controls on a scale of 0 to 100 where 0 represents no herbicidal effect and 100 represents plant death or lack of emergence from the soil and presented in Table A. Some of the compounds tested, application rates employed, plant species tested, and results are given in Table 4.

Assay [3] has as its system SETFA: giant foxtail (Setaria faberi). As to the kind of experiment: Pre-Emergent Test I. As to conditions: preemergence. How it is done: as §1
In assay [4] the test system is AMARE: redroot pigwseed (Amaranthus retroflexus). Description: Pre-Emergent Test I. As to conditions: preemergence. How it is done:
as §1

In assay [5] the test system is ECHSS (ECHCG: barnyardgrass (Echinochloa crus-galli)). Description: Pre-Emergent Test I. The conditions noted are these: preemergence. How it is done:
as §1

Assay [6] concerns AVEFA: wild oats (Avena fatua). Description: Pre-Emergent Test I. As to conditions: preemergence. How it is done: as §1
Assay [7] concerns IPOSS (IPOHE: ivyleaf morningglory (Ipomoea hederecea)). As to the kind of experiment: Pre-Emergent Test I. The conditions noted are these: preemergence. How it is done:
as §1

In the case of `COC(=O)c1nc(-c2ccc(C(F)(F)F)nc2)cc(N)c1Cl` [Compound 4], the results for the “Visual Growth Reduction (%) 14 Days After Application, IPOSS” value in assay [1] (4 kg ai/ha) and in assay [7] (4 kg ai/ha) were “A (95-100)” and “G (0-29)”, respectively. The “Visual Growth Reduction (%) 14 Days After Application, HELAN” value in assay [2] (4 kg ai/ha) is “G (0-29)”. In addition, in assay [3] (4 kg ai/ha), the “Visual Growth Reduction (%) 14 Days After Application, SETFA” value is “F (30-44)”. Also, in assay [4] (4 kg ai/ha), the “Visual Growth Reduction (%) 14 Days After Application, AMARE” value is on record as “D (60-74)”. The “Visual Growth Reduction (%) 14 Days After Application, ECHSS” value in assay [5] (4 kg ai/ha) was “F (30-44)”. Further, the “Visual Growth Reduction (%) 14 Days After Application, AVEFA” value in assay [6] (4 kg ai/ha) is reported as “G (0-29)”.

For the molecule `COC(=O)c1nc(-c2ccc(Cl)nc2F)cc(N)c1Cl` [Compound 17, methyl 4-amino-5,6′-dichloro-2′-fluoro-[2,3′-bipyridine]-6-carboxylate], the “Visual Growth Reduction (%) 14 Days After Application, IPOSS” value in assay [1] (3.8 kg ai/ha) and in assay [7] (3.8 kg ai/ha) was “A (95-100)” each time. Moreover, in assay [2] (3.8 kg ai/ha), the “Visual Growth Reduction (%) 14 Days After Application, HELAN” value was “A (95-100)”. The “Visual Growth Reduction (%) 14 Days After Application, SETFA” value in assay [3] (3.8 kg ai/ha) is recorded as “G (0-29)”. Further, the “Visual Growth Reduction (%) 14 Days After Application, AMARE” value in assay [4] (3.8 kg ai/ha) was “A (95-100)”. In assay [5] (3.8 kg ai/ha), the “Visual Growth Reduction (%) 14 Days After Application, ECHSS” value is listed as “F (30-44)”. Also, in assay [6] (3.8 kg ai/ha), the “Visual Growth Reduction (%) 14 Days After Application, AVEFA” value is given as “G (0-29)”.
